The values that follow come from patent US4983597A, “Beta-lactams as anticholesterolemic agents” (Merck & Co., Inc., priority 1989, dated 1991).

This test has as its target T1, HMG-CoA synthase (Rattus norvegicus, UniProt P17425).
T1 construct: The livers from male Charles River CD rats (225-350 g) were homogenized; from tissue; host or cells: rat liver (male Charles River CD rats), 100,000 x g supernatant, ammonium sulfate and DEAE-52 fraction
T1 sequence (P17425 1-520): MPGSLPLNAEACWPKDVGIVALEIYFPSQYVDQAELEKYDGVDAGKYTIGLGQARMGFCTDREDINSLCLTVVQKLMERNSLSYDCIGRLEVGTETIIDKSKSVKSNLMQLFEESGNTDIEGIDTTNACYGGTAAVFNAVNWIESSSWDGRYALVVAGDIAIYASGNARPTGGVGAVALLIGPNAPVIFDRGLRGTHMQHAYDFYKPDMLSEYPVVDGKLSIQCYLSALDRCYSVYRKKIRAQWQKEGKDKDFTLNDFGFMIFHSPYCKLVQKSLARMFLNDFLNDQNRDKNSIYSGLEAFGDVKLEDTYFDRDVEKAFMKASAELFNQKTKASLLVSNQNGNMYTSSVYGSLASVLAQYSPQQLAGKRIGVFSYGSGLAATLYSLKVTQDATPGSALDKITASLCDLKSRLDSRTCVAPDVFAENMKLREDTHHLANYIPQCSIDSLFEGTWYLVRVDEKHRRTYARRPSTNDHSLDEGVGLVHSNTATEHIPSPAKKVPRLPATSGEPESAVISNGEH
In words: HMG-CoA Synthase Inhibition Assay. In kind it is biochemical. The note with it: rat liver enzyme, 1-[14C]-acetyl-CoA incorporation. The method, then: The intrinisic HMG-CoA synthase inhibition activity of the compounds of this invention is measured by the standard in vitro protocol described below:
The livers from male Charles River CD rats (225-350 g) were homogenized in 0.25 M sucrose which was adjusted with phenylmethylsulfonylfluoride (PMSF) and N-p-tosyl-1-lysine chloromethyl ketone (TLCK) so that the final concentration of each was […], respectively. The homogenate was centrifuged at 15,000× g for 20 minutes, the supernatant filtered through a fine nylon screen to remove most of the fat layer and recentrifuged at 100,000× g for 1 hour. This supernatant was removed and 1 M potassium phosphate, dithiothreitol (DTT) and ethylene glycolbis(β-aminoethyl ether)-N,N,N',N'-tetraacetic acid (EGTA) added to give a final concentration of 0.1 M (pH 7.2), 0.5 mM and 0.1 mM, respectively. Solid ammonium sulfate was added to 50% saturation to the protein solution, it was centrifuged at 15,000× g and the supernatant discarded. This precipitated protein could be stored at -70° C. for at least one month with very little loss of activity. The ammonium sulfate precipitate was dissolved in an minimal amount of 0.06 M potassium phosphate buffer (pH 7.2) containing 0.5 mM dithiothreitol and 0.1 mM EGTA (referred to as 0.06 M phosphate buffer) and dialyzed overnight against 2 liters of the same buffer to remove the ammonium sulfate and to inactivate HMG-CoA lyase [Clinkenbeard, et al., J. Biol. Chem. 250, 3108-3116(1975)].
The dialyzed extract was added to a column of DEAE-52 (Whatman) which had been equilibrated with 0.06 M phosphate buffer (10 mg of protein in 1 ml bed volume of the resin). The DEAE-cellulose was eluted with 0.06 M phosphate buffer until the optical density at 280 nm was essentially zero. This fraction contained the β-ketoacetyl-CoA thiolase activity. The HMG-CoA synthase was eluted from the column with 0.1 M phosphate buffer (pH 7.2) containing 0.5 mM DTT and […] EGTA, and was virtually free of all thiolase activity. The protein was precipitated by the addition of ammonium sulfate to give 50% saturation. This solution was stirred for 10 minutes at 4° C. and the precipitate collected by centrifugation at 15,000 rpm for 10 minutes. The supernatant was discarded and the precipitate dissolved in a minimum of 0.06 M phosphate buffer, pH 7.2 (about 10 ml) and the enzyme stored at -80° C.
HMG-CoA Synthase Inhibition Assay
Enzyme protein (ca. 24 mg) was added to a solution containing […] Tris-HCl (pH 8.0), 11.7 μM MgCl2, 1.17 μM ethylenediaminetetraacetic acid (EDTA), 0.58 μM dithiothreitol, and the indicated concentrations of the test compound (added as a 2 mg/ml solution in dimethylsulfoxide). The incubation took place in a volume of 0.085 ml at 30° in a shaking water bath. After 5 minutes, […] of a solution containing acetoacetyl-CoA and 0.1 μCi of 1-[^14 C]-acetyl-CoA was added to give a final concentrations of 0.1 and 0.4 μM, respectively. The incubation was continued for 10 more minutes and the reaction stopped by the addition of […] of the assay mixture to 0.2 ml of 6N HCl in a glass scintillation vial. The vial was heated for 1 hour at 120° after which time 0.2 ml more of 6N HCl was again added to each vial and the heating continued for another hour. Following this, 1.0 ml of 0.9% saline was added to each vial and finally 10 ml of scintillation liquid. Radioactivity was determined in a Packard Tri-Carb liquid scintillation counter. Percent inhibition is calculated by the formula: [formula]
IC50 values were determined by plotting the log of the concentration of the test compound verses the percentage inhibition and fitting a straight line to the resulting data by using the least squares method.

For the compound `CCC1C(=O)N(S(=O)(=O)c2ccc(C)cc2)C1C(C)OC(=O)c1ccc(OC)cc1` (centres unmarked) [Table V c], the IC50 (Table V) is 120 nM.

For `CC[C@@H]1C(=O)N(S(=O)(=O)c2ccc(C)cc2)[C@@H]1COC(=O)Cc1ccccn1` (relative stereo) [Table II p], the IC50 (Table II) came out at 10 nM.

Consider `CC[C@@H]1C(=O)N(S(=O)(=O)c2ccc(C)cc2)[C@@H]1COC(=O)c1ccc(OC)cc1` [Table I i], for which, for the setting “Table I”, the IC50 came to 30 nM. Take `Cc1ccc(S(=O)(=O)N2C(=O)C(C)(C)C2C(Cc2ccccc2)OC(=O)c2ccccc2)cc1` (centres unmarked) [Table VI b]: the IC50 (Table VI) stood at 400 nM. In the case of `CC[C@@H]1C(=O)N(S(=O)(=O)c2ccc(C)cc2)[C@@H]1COC(=O)c1ccccc1NS(C)(=O)=O` (relative stereo) [Table I l], half-maximal inhibition (Table I) (IC50) required 31 nM. Regarding `CC[C@@H]1C(=O)N(S(=O)(=O)c2ccc(C)cc2)[C@@H]1COC(=O)c1cc2ccccc2o1` (relative stereo) [Table I ff], for the setting “Table I”, the IC50 is 33 nM.

For the compound `CC[C@H]1C(=O)N(S(=O)(=O)c2ccc(C)cc2)[C@H]1COC(=O)Nc1ccc(C(F)(F)F)cc1` (relative stereo) [Table II x], the midpoint of inhibition (Table II), the IC50, lay at 260 nM.

Where the note is “Table IV”, `Cc1ccc(S(=O)(=O)N2C(=O)[C@H](CO)[C@@H]2C=Cc2ccccc2)cc1` (relative stereo) [Table IV d] returned an IC50 of 1100 nM.

Turning to `CCOc1ccc(CC(=O)OC[C@H]2[C@@H](CC)C(=O)N2S(=O)(=O)c2ccc(C)cc2)cc1` (relative stereo) [Table II r], the 50% inhibitory concentration (IC50) (Table II) is 22 nM. `CC[C@@H]1C(=O)N(S(=O)(=O)c2ccc(C)cc2)[C@@H]1COC(=O)c1ccccc1` (relative stereo) [Table I dd]: the IC50 (Table I) is 110 nM. The compound `CC(=O)OCC(C)C1CC(=O)N1S(=O)(=O)c1ccc(C)cc1` (centres unmarked) [Table V g] came in with an IC50 (Table V) of 290 nM.
